Results on twelve compounds are retold here after ChEMBL document CHEMBL1140665, “Eco-friendly synthesis and study of new plant growth promoters: 3,3'-Diindolylmethane and its derivatives” (2007).

Common to all, as to type: functional
The test system of assay [1] is Oryza sativa. In words: Growth promoting activity in Oryza sativa assessed as shoot length at 250 ppm on day 5.
For assay [2], the system named is Oryza sativa. In words: Growth promoting activity in Oryza sativa assessed as root length at 125 ppm on day 5.
Assay [3] deals with Oryza sativa. Kind of assay: Growth promoting activity in Oryza sativa assessed as root length at 1000 ppm on day 5.
Assay [4] concerns Oryza sativa. Kind of assay: Growth promoting activity in Oryza sativa assessed as root length at 500 ppm on day 5.
For assay [5], the system named is Oryza sativa. In words: Growth promoting activity in Oryza sativa assessed as root length at 31.25 ppm on day 5.
The test system of assay [6] is Oryza sativa. Kind of assay: Growth promoting activity in Oryza sativa assessed as shoot length at 1000 ppm on day 5.
Assay [7] concerns Oryza sativa. Kind of assay: Growth promoting activity in Oryza sativa assessed as root length at 62.5 ppm on day 5.
Assay [8] has as its system Oryza sativa. In words: Growth promoting activity in Oryza sativa assessed as shoot length at 62.5 ppm on day 5.
Assay [9] has as its system Oryza sativa. In words: Growth promoting activity in Oryza sativa assessed as shoot length at 125 ppm on day 5.
In assay [10] the test system is Oryza sativa. In words: Growth promoting activity in Oryza sativa assessed as shoot length at 500 ppm on day 5.
In assay [11] the test system is Oryza sativa. In words: Growth promoting activity in Oryza sativa assessed as shoot length at 31.25 ppm on day 5.
Assay [12] relates to Oryza sativa. Kind of assay: Growth promoting activity in Oryza sativa assessed as root length at 250 ppm on day 5.

The structures appear in SMILES notation.

With `Cn1cc(Cc2cn(C)c3ccccc23)c2ccccc21`, the Activity came out at 10.3 mm in assay [1]; 25.4 mm in [2]; 16.72 mm in assay [3]; 19.7 mm in [4]; 20.4 mm in assay [5]; 6.1 mm in [6]. In addition, the Activity came to 23.5 mm in assay [7]; 10.7 mm in assay [8]; 12.2 mm in assay [9]; 8.37 mm in [10]; 9.2 mm in assay [11]; 22.52 mm in assay [12].
Turning to `COc1ccc2[nH]cc(Cc3c[nH]c4ccc(OC)cc34)c2c1`, the Activity in assay [1] was 15.23 mm; in [2] it was 33.8 mm; in [3], 23.62 mm; in assay [4], 26.5 mm; in [5] it was 28.4 mm; in [6] it was 11.6 mm. The Activity stood at 30.6 mm in assay [7]; 15.3 mm in [8]; 17.6 mm in assay [9]; 13.4 mm in assay [10]; 13.4 mm in assay [11]; 29.42 mm in assay [12].
In the case of `Brc1ccc2[nH]cc(Cc3c[nH]c4ccc(Br)cc34)c2c1`, the Activity in assay [1] amounted to 10.7 mm; in assay [2] it was 23.2 mm; in assay [3], 13.8 mm; in [4], 16.6 mm; in assay [5] it was 18.6 mm; in assay [6], 6.7 mm. The Activity was 21.1 mm in [7]; 11 mm in assay [8]; 12.7 mm in [9]; 8.53 mm in [10]; 9.5 mm in assay [11]; 19.72 mm in [12].
As to `Cn1cc(Cc2cn(C)c3ccc(Br)cc23)c2cc(Br)ccc21`, the Activity in assay [1] came out at 9.72 mm; in [2] it was 22.6 mm; in [3], 12.9 mm; in [4], 15.9 mm; in assay [5] it was 16.8 mm; in assay [6] it was 5.92 mm. Also, the Activity in [7] stood at 19.6 mm; in assay [8], 10.1 mm; in [9], 11.4 mm; in assay [10] it was 8.12 mm; in assay [11], 9.05 mm; in [12], 18.56 mm.
As to `Cc1c(Cc2c(C)n(C)c3ccccc23)c2ccccc2n1C`, the Activity in assay [1] is 16.8 mm; in assay [2] it was 39.4 mm; in assay [3], 30.72 mm; in assay [4], 33.4 mm; in assay [5], 34.2 mm; in [6] it was 12 mm. Moreover, the Activity in [7] was 36.4 mm; in assay [8], 16.4 mm; in assay [9], 18.7 mm; in assay [10] it was 14.7 mm; in assay [11], 14.7 mm; in [12], 35.42 mm.
With `Cn1cc(Cc2cn(C)c3ccc([N+](=O)[O-])cc23)c2cc([N+](=O)[O-])ccc21`, the Activity in assay [1] amounted to 9.56 mm; in assay [2], 21.4 mm; in assay [3], 12.12 mm; in assay [4], 15.2 mm; in [5] it was 16.2 mm; in assay [6], 5.76 mm. Besides, the Activity turned out to be 18.9 mm in assay [7]; 9.96 mm in assay [8]; 11 mm in assay [9]; 7.82 mm in [10]; 8.87 mm in [11]; 18.16 mm in assay [12].
With `COc1ccc2c(c1)c(Cc1cn(C)c3ccc(OC)cc13)cn2C`, the Activity stood at 11.42 mm in assay [1]; 30.4 mm in assay [2]; 20.78 mm in assay [3]; 23.3 mm in assay [4]; 25.7 mm in assay [5]; 7.8 mm in [6]. Also, the Activity in assay [7] turned out to be 28.2 mm; in assay [8], 11.5 mm; in assay [9], 13.6 mm; in [10], 9.66 mm; in assay [11], 9.78 mm; in assay [12], 26.72 mm.
With `c1ccc(-c2[nH]c3ccccc3c2Cc2c(-c3ccccc3)[nH]c3ccccc23)cc1`, the Activity in assay [1] worked out at 17.32 mm; in [2], 38.7 mm; in assay [3], 29.76 mm; in [4] it was 32.6 mm; in [5] it was 33.6 mm; in assay [6], 12.9 mm. For the same compound, the Activity stood at 35.9 mm in [7]; 17.4 mm in assay [8]; 19.5 mm in assay [9]; 15.5 mm in assay [10]; 15.2 mm in assay [11]; 34.2 mm in [12].
As for `Cc1[nH]c2ccccc2c1Cc1c(C)[nH]c2ccccc12`, the Activity in assay [1] was determined as 18.57 mm; in [2] it was 46.5 mm; in [3], 35.12 mm; in [4], 38.5 mm; in assay [5] it was 40.2 mm; in [6], 13.3 mm. For the same compound, the Activity came out at 42.8 mm in assay [7]; 19.6 mm in assay [8]; 21.1 mm in assay [9]; 16.3 mm in [10]; 16.4 mm in assay [11]; 40.66 mm in assay [12].
For the compound `Cn1c(-c2ccccc2)c(Cc2c(-c3ccccc3)n(C)c3ccccc23)c2ccccc21`, the Activity amounted to 15.01 mm in assay [1]; 34.5 mm in assay [2]; 25.6 mm in assay [3]; 28.2 mm in [4]; 29.6 mm in [5]; 10.8 mm in assay [6]. For the same compound, the Activity in assay [7] came to 31.2 mm; in [8], 15.4 mm; in assay [9] it was 17.2 mm; in [10], 13.6 mm; in assay [11], 13.8 mm; in [12], 30.27 mm.
On to `c1ccc2c(Cc3c[nH]c4ccccc34)c[nH]c2c1` [ARUNDINE], for which the Activity in [2] amounted to 29.5 mm; in [4], 22.4 mm; in [5], 24.6 mm; in [6], 8.45 mm; in assay [7], 26.3 mm; in assay [8], 13.4 mm. The Activity was 15.7 mm in assay [9], 10.9 mm in assay [10] and 11.2 mm in [11].
On to `O=C(O)Cc1c[nH]c2ccccc12` [INDOLE-3-ACETIC ACID], for which the Activity in [2] was 20.3 mm; in assay [4], 14.4 mm; in [5], 15.6 mm; in assay [6], 5.28 mm; in assay [7] it was 18.7 mm; in assay [8], 9.81 mm. For the same compound, the Activity was found to be 10.6 mm in [9], 7.66 mm in [10] and 8.72 mm in assay [11].
